Where a name gives a salt, the structure may show the parent alone.
Legend:
[1] = instrument: DT, stepped-field
[2] = instrument: DT, single field, calibrated with Agilent tune mix (Agilent)

Row | SMILES | collision cross section (N2) ([1]; [M+H]+) [Å²] | collision cross section (N2) ([1]; [M+Na]+) [Å²] | also measured
1 | Nc1ncnc2c1ncn2[C@H]1C[C@H](O)[C@@H](CO)O1 [2'-Deoxyadenosine] | 162.73 | 166.67 | –
2 | OC1C(O)C(O)C(O)C(O)C1O (stereo not given) [Inositol] | – | 151.95 | –
3 | N[C@@H](Cc1ccccc1Cl)C(=O)O [2-Chloro-L-Phenylalanine] | 148.86 | – | –
4 | O=C1c2ccccc2C(=O)c2ccccc21 [Anthraquinone] | 141.89 | – | –
5 | CC(C)C1(C)N=C(c2ncccc2C(=O)O)NC1=O (stereo not given) [Imazapyr] | 157.81 | 176.07 | –
6 | C[C@@H]1O[C@@H](O[C@H]2C(=O)c3c(O)cc(O)cc3O[C@@H]2c2ccc(O)c(O)c2)[C@H](O)[C@H](O)[C@H]1O [Astilbin] | 205.87 | 212.64 | –
7 | Cc1cc(O)c2c(c1)C(=O)c1cc(O)cc(O)c1C2=O [Emodin] | 161.3 | – | –
8 | O=C1C[C@@H](c2ccc(O)c(O)c2)Oc2cc(O)cc(O)c21 [Eriodictyol] | 170.48 | 182.17 | –
9 | O=c1c(-c2ccc(O)cc2)coc2cc(O)cc(O)c12 [Genistein] | 163.3 | 177.67 | –
10 | Nc1ccn([C@@H]2O[C@H](CO)[C@@H](OP(=O)(O)O)[C@H]2O)c(=O)n1 [Cytidine 3'-monophosphate] | 170.98 | 174.9 | –
11 | NC(=O)C[C@H](N)C(=O)O [L-Asparagine] | 131.54 | 131.94 | –
12 | NC(N)=NCCCC(=O)O [4-Guanidinobutanoic Acid] | 132.8 | – | –
13 | N[C@@H]1C(O)O[C@H](CO)[C@@H](O)[C@@H]1O (stereo partly drawn) [D-Mannosamine] | – | 146.73 | –
14 | OC[C@H]1O[C@@H](O[C@H]2[C@H](O)[C@@H](O)[C@H](O[C@H]3[C@H](O)[C@@H](O)[C@H](O[C@H]4[C@H](O)[C@@H](O)[C@H](O[C@H]5[C@H](O)[C@@H](O)C(O)O[C@@H]5CO)O[C@@H]4CO)O[C@@H]3CO)O[C@@H]2CO)[C@H](O)[C@@H](O)[C@@H]1O (stereo not given in full) [Cellopentaose] | – | 251.04 | –
15 | O=C[C@H](O)[C@H](O)COP(=O)(O)O [D-Erythrose 4-Phosphate] | – | 153.89 | –
16 | C=C1C2CCC(C2)C1(C)C (stereo not given) [Camphene] | 130.63 | 133.01 | –
17 | O=C(O)[C@H](O)[C@@H](O)CO [L-Threonic Acid] | – | 136.93 | –
18 | CC(C)CC[C@@H](O)[C@@H](C)[C@H]1CC[C@H]2[C@@H]3CC=C4C[C@@H](O)CC[C@]4(C)[C@H]3CC[C@]12C [22beta-Hydroxycholesterol] | – | – | collision cross section (N2) ([2]; [M+H-H2O]+): 205.2 Å²; collision cross section (N2) ([2]; [M-H]-): 217.74 Å²
19 | OC1OC[C@@H](O)[C@H](O)[C@H]1O (stereo partly drawn) [D-Xylose] | – | – | collision cross section (N2) ([2]; [M+Na]+): 134.6 Å²
20 | O=C(/C=C/c1ccc(O)c(O)c1)O[C@H](Cc1ccc(O)c(O)c1)C(=O)O [Rosmarinic Acid] | – | – | collision cross section (N2) ([2]; [M+Na]+): 195.6 Å²; collision cross section (N2) ([2]; [M-H]-): 170.26 Å²
21 | N#C[C@H](O[C@@H]1O[C@H](CO)[C@@H](O)[C@H](O)[C@H]1O)c1ccccc1 [Prunasin] | – | – | collision cross section (N2) ([2]; [M+Na]+): 173.7 Å²
22 | CC(C)CCCC(C)CCCC(C)CCCC(C)CC(=O)O (stereo not given) [Phytanic acid] | – | – | collision cross section (N2) ([2]; [M-H]-): 183.17 Å²

Row | SMILES | collision cross section (N2) ([1]; [M+H]+) [Å²] | collision cross section (N2) ([1]; [M+Na]+) [Å²] | also measured
23 | C[C@]12CC[C@H]3[C@@H](CC=C4C[C@@H](O)CC[C@@]43C)[C@@H]1CC[C@@H]2C(=O)CO [21-Hydroxypregnenolone] | – | – | collision cross section (N2) ([2]; [M+H-H2O]+): 178.4 Å²; collision cross section (N2) ([2]; [M-H]-): 185.89 Å²
24 | CC(C)CCC[C@@H](C)[C@H]1CC[C@H]2[C@@H]3CC=C4C[C@@H](OS(=O)(=O)O)CC[C@]4(C)[C@H]3CC[C@]12C [Cholesteryl sulfate] | – | – | collision cross section (N2) ([2]; [M-H]-): 237.01 Å²
25 | CCCCCCCCCCCCCC[C@@H](O)[C@@H](O)[C@@H](N)CO [Phytosphingosine] | – | – | collision cross section (N2) ([2]; [M+H]+): 196.2 Å²; collision cross section (N2) ([2]; [M-H]-): 180.68 Å²
26 | Nc1ccn([C@@H]2O[C@H](COP(=O)(O)OP(=O)(O)OP(=O)(O)O)[C@@H](O)[C@H]2O)c(=O)n1 [Cytidine triphosphate] | – | – | collision cross section (N2) ([2]; [M-H]-): 179.08 Å²
27 | O=C(O)CC[C@@](O)(CC(=O)O)C(=O)O [Homocitrate] | – | – | collision cross section (N2) ([2]; [M+Na]+): 145 Å²; collision cross section (N2) ([2]; [M-H]-): 129.99 Å²
28 | Cn1c(=O)[nH]c2[nH]c(=O)[nH]c2c1=O [1-Methyluric acid] | – | – | collision cross section (N2) ([2]; [M-H]-): 129.18 Å²
29 | CC1=CC(=O)c2ccccc2C1=O [Menadione (Vitamin K3)] | – | – | collision cross section (N2) ([2]; [M+H]+): 134.6 Å²
30 | CN(C)c1nc(=O)c2ncn([C@@H]3O[C@H](CO)[C@@H](O)[C@H]3O)c2[nH]1 [N2,N2-Dimethylguanosine] | – | – | collision cross section (N2) ([2]; [M+H]+): 170.6 Å²; collision cross section (N2) ([2]; [M-H]-): 169.16 Å²
31 | OC[C@@H](O)C(O)[C@@H](O)CO (stereo not given in full) [Ribitol] | – | – | collision cross section (N2) ([2]; [M+Na]+): 136.3 Å²
32 | NC(N)=NCC(=O)O [Guanidoacetic acid] | – | – | collision cross section (N2) ([2]; [M+H]+): 124.8 Å²
33 | C[C@@H](N)C(=O)N[C@H](C)C(=O)O [D-Alanyl-D-alanine] | – | – | collision cross section (N2) ([2]; [M-H]-): 134.05 Å²
34 | C[C@H](CCC(=O)NCC(=O)O)[C@H]1CC[C@H]2[C@@H]3CC[C@@H]4C[C@H](O)CC[C@]4(C)[C@H]3C[C@H](O)[C@]12C [Glycodeoxycholic acid] | – | – | collision cross section (N2) ([2]; [M+Na]+): 203.9 Å²; collision cross section (N2) ([2]; [M-H]-): 197.81 Å²
35 | Nc1nc(=O)c2nc(CNc3ccc(C(=O)N[C@@H](CCC(=O)O)C(=O)O)cc3)cnc2[nH]1 [Folate] | – | – | collision cross section (N2) ([2]; [M+H]+): 195.5 Å²
36 | CC(=O)N[C@H]1[C@@H](OP(=O)(O)OP(=O)(O)OC[C@H]2O[C@@H](n3ccc(=O)[nH]c3=O)[C@H](O)[C@@H]2O)O[C@H](CO)[C@@H](O)[C@@H]1O [UDP-N-acetylglucosamine] | – | – | collision cross section (N2) ([2]; [M+H]+): 208.8 Å²; collision cross section (N2) ([2]; [M-H]-): 222 Å²
37 | O=C(O)Cc1ccc(O)c(O)c1 [3,4-Dihydroxyphenylacetic acid] | – | – | collision cross section (N2) ([2]; [M-H2O-H]-): 125.7 Å²
38 | NCCCNCCCCNCCCN [Spermine] | – | – | collision cross section (N2) ([2]; [M+H]+): 148.2 Å²
39 | Cc1c(C)c2c(c(C)c1O)CC[C@@](C)(CCC[C@H](C)CCC[C@H](C)CCCC(C)C)O2 [alpha-Tocopherol] | – | – | collision cross section (N2) ([2]; [M+H]+): 216.6 Å²; collision cross section (N2) ([2]; [M-H]-): 208.52 Å²
40 | CC[C@H](C)[C@@H]1NC(=O)[C@H](Cc2ccc(O)cc2)NC(=O)[C@@H](N)CSSC[C@@H](C(=O)N2CCC[C@H]2C(=O)N[C@@H](CC(C)C)C(=O)NCC(N)=O)NC(=O)[C@H](CC(N)=O)NC(=O)[C@H](CCC(N)=O)NC1=O [Oxytocin] | – | – | collision cross section (N2) ([2]; [M+H]+): 303.8 Å²; collision cross section (N2) ([2]; [M-H]-): 294.98 Å²
41 | CC(=O)Oc1cc(C)c(OC(C)=O)c2ccccc12 [Acetomenaphthone] | – | – | collision cross section (N2) ([2]; [M+Na]+): 157.2 Å²
42 | N[C@H](CO)Cc1cnc[nH]1 [L-Histidinol] | – | – | collision cross section (N2) ([2]; [M+H]+): 128.3 Å²; collision cross section (N2) ([2]; [M-H]-): 126.11 Å²
43 | NC(CCCC(=O)O)C(=O)O (racemic) [DL-2-Aminoadipic acid] | – | – | collision cross section (N2) ([2]; [M+H]+): 134.4 Å²; collision cross section (N2) ([2]; [M-H]-): 127.69 Å²

Continued, in another order:

Row | collision cross section (N2) ([1]; [M+H]+) [Å²] | collision cross section (N2) ([1]; [M+Na]+) [Å²] | SMILES | also measured
44 | – | 216.86 | CCCCCCCCCCCCCCCCCCCCCCCC(=O)O [Lignoceric Acid] | –
45 | 220.71 | 225.41 | CCCCCCCCCCCCC(=O)OCC(O)COP(=O)([O-])OCC[N+](C)(C)C (stereo not given) [LPC 13:0] | –
46 | 130.23 | – | O=C(O)[C@@H]1C[C@@H](O)CN1 [Trans-4-Hydroxy-L-proline] | –
47 | 125.47 | – | c1cn[nH]c1 [Pyrazole] | –
48 | – | 143.67 | CC1(O)CCOC(=O)C1 (stereo not given) [Mevalonolactone] | –
49 | – | 279.7 | OC[C@H]1O[C@H](O[C@H]2[C@H](O)[C@@H](O)[C@@H](O[C@H]3[C@H](O)[C@@H](O)[C@@H](O[C@H]4[C@H](O)[C@@H](O)[C@@H](O[C@H]5[C@H](O)[C@@H](O)[C@@H](O[C@H]6[C@H](O)[C@@H](O)C(O)O[C@@H]6CO)O[C@@H]5CO)O[C@@H]4CO)O[C@@H]3CO)O[C@@H]2CO)[C@H](O)[C@@H](O)[C@@H]1O (stereo not given in full) [Maltohexaose] | –
50 | – | 167.4 | OC1OC[C@@H](O[C@@H]2OC[C@@H](O)[C@H](O)[C@H]2O)[C@H](O)[C@H]1O (stereo not given in full) [Xylobiose] | –
51 | 133.71 | – | CN[C@@H](CCC(=O)O)C(=O)O [N-Methyl-L-glutamate] | –
52 | 139.45 | – | O=C(O)CC(=O)C(=O)O [Oxaloacetic Acid] | –
53 | – | 183.57 | O=C[C@H](O[C@@H]1O[C@H](CO)[C@@H](O)[C@H](O)[C@H]1O)[C@@H](O)[C@H](O)[C@H](O)CO [Sophorose] | –
54 | – | 140.55 | C=CC(C)(O)CCC=C(C)C (stereo not given) [Linalool] | –
55 | 135.63 | – | Cn1c(=O)[nH]c2ncn(C)c2c1=O [Paraxanthine] | –
56 | – | 230.47 | OC[C@H]1O[C@H](O[C@H]2[C@H](O)[C@@H](O)[C@@H](O[C@H]3[C@H](O)[C@@H](O)[C@@H](O[C@H]4[C@H](O)[C@@H](O)[C@@H](O)O[C@@H]4CO)O[C@@H]3CO)O[C@@H]2CO)[C@H](O)[C@@H](O)[C@@H]1O [Maltotetraose] | –
57 | – | 301.6 | CC(=O)NC1[C@H](OC2[C@@H](O)[C@H](OC([C@H](O)CO)[C@@H](O)[C@@H](O)C=O)O[C@H](COC3O[C@H](CO)[C@@H](O[C@@H]4O[C@H](CO)[C@H](O)[C@H](O)[C@H]4O)[C@H](O)[C@H]3NC(C)=O)[C@H]2O)O[C@H](CO)[C@@H](O)[C@@H]1OC1O[C@H](CO)[C@H](O)[C@H](O)[C@H]1O (stereo not given in full) [Lacto-N-hexaose] | –
58 | 153.02 | 149.13 | O=C(O)/C=C(\CC(=O)O)C(=O)O [Trans-Aconitic Acid] | –
